The source of these data is paper PMC6486608, “A cell-penetrating peptide blocks Toll-like receptor-mediated downstream signaling and ameliorates autoimmune and inflammatory diseases in mice” (Experimental & Molecular Medicine, 2019).

Test [1] concerns the target T1, BB loop (710-RDFIPGVAIAA-720) of the TLR4-TIR domain (Homo sapiens, UniProt O00206).
T1 construct: Synthetic peptides encoding the BB loop (710-RDFIPGVAIAA-720) of the TIR domain were immobilized; purchased Peptron, Inc. (Daejeon, Korea); host or cells: chemical synthesis
Kind of test: SPR, BB loop. In kind it is binding. The procedure: The SPR experiments were conducted using a ProteOn XPR36 instrument (Bio-Rad Laboratories, Inc.) with a ProteOn NLC sensor chip. PBST served as running buffer, and 0.85% phosphoric acid or PBST was used for regeneration. Synthetic peptides encoding the BB loop (710-[…]-720) of the TIR domain were immobilized by NeutrAvidin bound to the GLC polymer layer onto surfaces of an NLC sensor chip as described in the protocol. Different concentrations of TIP1 (12.5, 25, or 50 μM) were run into the chip to check their binding with the immobilized peptides. Running buffer was injected into an empty channel as a reference. The dissociation was monitored for 5 min, and the chip was regenerated for the second round. ProteOn Manager software (version 2.0) was employed to analyze the data. The binding curves were processed for the start injection alignment and baseline. A reference-subtracted sensorgram was fitted globally to the curves describing a homogeneous 1:1 model. Data from various doses of TIP1 were grouped together to fit the kinetic rate constants (ka and kd). The equilibrium dissociation constant, KD, was calculated according to the equation KD = kd/ka. Surface plasmon resonance (SPR) is a powerful technique used for high-throughput screening and is considered a potent tool for drug discovery. SPR can provide detailed information on peptide-receptor binding kinetics or small-molecule-protein or protein-protein interactions. […] The association rate constant (ka), dissociation rate constant (kd), and equilibrium dissociation constant (KD) of TIP1 were measured in a dose-dependent manner (Fig. 4a). […] Later, the fluorescence intensities of TIP1-FITC, TLR4, and MyD88 were measured by immunofluorescent staining and confocal microscopy. […] The expression levels of TLR4 and MyD88 and the localization of TIP1-FITC were determined by immunofluorescent staining and confocal microscopy. Orthogonal projections, 3D image reconstruction, and fluorescence intensity profiles of confocal images show localization of TIP1-FITC and TLR4.
For orientation: SPR reads the build-up and loss of mass on a sensor chip optically.

Test [2] has as its system CIA mouse model (DBA/1J mice). Briefly: RA in a model of CIA. In kind it is in vivo. The settings on record: i.p. daily. The procedure: All animal care and experimental procedures were conducted in accordance with the National Institute of Health Guide for the Care and Use of Laboratory Animals and were approved by the Animal Care and Use Committee of Kyung Hee University [Permit number: KHUASP(SE)-15-115]. Male DBA/1J mice weighing 20–23 g (6–7 weeks old) were purchased from Central Lab Animal Inc. (Seoul, Korea). The mice were housed in a limited-access rodent facility at 22–24 °C with up to four animals per polycarbonate cage under a 12:12-h light/dark cycle with free access to pelleted food and water. CIA was implemented according to the protocol previously described. Briefly, the mice were immunized at the base of the tail with a mixture of 100 μg of chicken type II collagen (CII, Sigma-Aldrich) and an equal volume of complete Freund’s adjuvant (Sigma-Aldrich); this time point was designated as day 0. The mice were then given a booster (second) injection of the mixture on day 14. […] To evaluate arthritis progression in the CIA mice, body weight, paw volume, squeaking score, and the arthritic index were measured. The mouse body weights were measured using a digital balance (Mettler-Toledo Inc., Columbus, OH, USA). Joint pain in the hindlimb was evaluated by scoring squeaking during forced flexion and extension of the hindlimb ankle joint 10 times every 5 s. […] Total numbers of vocalizations detected by the observer were then calculated as the squeaking score. Paw volume was measured by the volume displacement of an electrolyte solution using a water-displacement plethysmometer (Ugo-Basile Biological Research Apparatus Co., Comerio-Varese, Italy) as described elsewhere[13],[14]. The hind paw was immersed to the level of the hairy skin, and the volumes were read on a digital display. Paw volume was expressed as a relative value compared with that on day 0, which was defined as 1.0 (100%). […]

Ends that are not written are not given here.

As to RQIKIWFQNRRMKWKKSHCRVLLI [TIP1], the kon in test [1] (homogeneous 1:1 model, global fit of 12.5, 25, 50 µM, read-out: ka (association rate constant)) was 187 M⁻¹ s⁻¹. Besides, the koff in test [1] (homogeneous 1:1 model, global fit of 12.5, 25, 50 µM, read-out: kd (dissociation rate constant)) stood at 0.00782 s⁻¹. Further, the Kd (commonly a measure of binding affinity in units of concentration) in test [1] (printed in figure 4a, calculated as kd/ka) is 41.8 µM.
In the case of `C[C@]12C=CC(=O)C=C1CC[C@@H]1[C@@H]2[C@@H](O)C[C@@]2(C)[C@H]1CC[C@]2(O)C(=O)CO` [prednisolone], the “body weight, average” value in test [2] (TIP1 10 nmol/g or prednisolone 5 mg/kg, CIA 16.9 g, normal 21.9 g) came out at 21.0 g. For the same compound, in test [2] (TIP1 10 nmol/g or prednisolone), the arthritis index score result is reported as “significantly decreased the index score”; the “squeaking and paw volume increase” value was “highly increased in the CIA mice compared with normal mice but not in the TIP1 (10 nmol/g)- or prednisolone-injected mice”.
